{"source": "paper PMC12655637", "about": "“Design, Synthesis, and Mechanistic Study of Novel Ciprofloxacin/Thiazole Chalcone Hybrids as Potential Anticancer Agents” (Pharmaceuticals, 2025)", "key": {"[1]": {"system": "MDA-MB-435", "assay": "NCI-60 screening, one-dose (10 µM) and five-dose, SRB", "assay_type": "cell-based", "details": "Homo sapiens, MDA-MB-435, read-out: Growth percentage, 10 μM; MDA-MB-435, Melanoma"}, "[2]": {"system": "COLO 205", "assay": "NCI-60 screening, one-dose (10 µM) and five-dose, SRB", "assay_type": "cell-based, human", "details": "Homo sapiens; 10 μM; COLO 205, Colon Cancer; read-out: Growth percentage"}, "[3]": {"system": "60 human cancer cell lines", "assay": "NCI-60 screening, full panel (mean growth, MID a, ranges over all lines)", "details": "Homo sapiens, read-out: Mean growth percentage"}, "[4]": {"system": "MOLT-4", "assay": "NCI-60 screening, one-dose (10 µM) and five-dose, SRB", "assay_type": "cell-based, human", "details": "Homo sapiens; 10 μM; MOLT-4, Leukemia; read-out: Growth percentage"}, "[5]": {"system": "BT-549", "assay": "NCI-60 screening, one-dose (10 µM) and five-dose, SRB", "assay_type": "cell-based", "details": "Homo sapiens; 10 μM; BT-549, Breast Cancer; read-out: Growth percentage"}, "[6]": {"system": "NCI-H23", "assay": "NCI-60 screening, one-dose (10 µM) and five-dose, SRB", "assay_type": "cell-based, human", "details": "Homo sapiens; 10 μM; NCI-H23, Non-Small-Cell Lung Cancer; read-out: Growth percentage"}, "[7]": {"system": "SK-MEL-28", "assay": "NCI-60 screening, one-dose (10 µM) and five-dose, SRB", "assay_type": "cell-based, human", "details": "Homo sapiens; 10 μM; SK-MEL-28, Melanoma; read-out: Growth percentage"}, "[8]": {"system": "MDA-MB-468", "assay": "NCI-60 screening, one-dose (10 µM) and five-dose, SRB", "assay_type": "cell-based, human", "details": "Homo sapiens, MDA-MB-468, 10 μM; MDA-MB-468, Breast Cancer; read-out: Growth percentage", "from_the_text": "Control cells Test cells FLD\navailable usually at NCI library.\nAn aliquot of frozen drug concentrate is […]"}, "[9]": {"system": "NCI-H522", "assay": "NCI-60 screening, one-dose (10 µM) and five-dose, SRB", "assay_type": "cell-based, human", "details": "Homo sapiens; 10 μM; NCI-H522, Non-Small-Cell Lung Cancer; read-out: Growth percentage"}, "[10]": {"system": "NCI-H226", "assay": "NCI-60 screening, one-dose (10 µM) and five-dose, SRB", "assay_type": "cell-based, human", "details": "Homo sapiens; 10 μM; NCI-H226, Non-Small-Cell Lung Cancer; read-out: Growth percentage"}, "[11]": {"system": "HOP-92", "assay": "NCI-60 screening, one-dose (10 µM) and five-dose, SRB", "assay_type": "cell-based, human", "details": "Homo sapiens; 10 μM; HOP-92, Non-Small-Cell Lung Cancer; read-out: Growth percentage"}, "[12]": {"system": "CAKI-1", "assay": "NCI-60 screening, one-dose (10 µM) and five-dose, SRB", "assay_type": "cell-based", "details": "Homo sapiens; 10 μM; CAKI-1, Renal Cancer; read-out: Growth percentage"}, "[13]": {"system": "UACC-62", "assay": "NCI-60 screening, one-dose (10 µM) and five-dose, SRB", "assay_type": "cell-based", "details": "Homo sapiens; 10 μM; UACC-62, Melanoma; read-out: Growth percentage"}, "[14]": {"system": "TK-10", "assay": "NCI-60 screening, one-dose (10 µM) and five-dose, SRB", "assay_type": "cell-based, human", "details": "Homo sapiens; 10 μM; TK-10, Renal Cancer; read-out: Growth percentage"}, "[15]": {"system": "OVCAR-3", "assay": "NCI-60 screening, one-dose (10 µM) and five-dose, SRB", "assay_type": "cell-based", "details": "Homo sapiens; 10 μM; OVCAR-3, Ovarian Cancer; read-out: Growth percentage"}, "[16]": {"system": "OVCAR-4", "assay": "NCI-60 screening, one-dose (10 µM) and five-dose, SRB", "assay_type": "cell-based, human", "details": "Homo sapiens; 10 μM; OVCAR-4, Ovarian Cancer; read-out: Growth percentage"}, "[17]": {"system": "OVCAR-8", "assay": "NCI-60 screening, one-dose (10 µM) and five-dose, SRB", "assay_type": "cell-based, human", "details": "Homo sapiens; 10 μM; OVCAR-8, Ovarian Cancer; read-out: Growth percentage"}, "[18]": {"system": "NCI-H460", "assay": "NCI-60 screening, one-dose (10 µM) and five-dose, SRB", "assay_type": "cell-based, human", "details": "Homo sapiens, NCI-H460, 10 μM; NCI-H460, Non-Small-Cell Lung Cancer; read-out: Growth percentage"}, "[19]": {"system": "SF-268", "assay": "NCI-60 screening, one-dose (10 µM) and five-dose, SRB", "assay_type": "cell-based, human", "details": "Homo sapiens; 10 μM; SF-268, CNS Cancer; read-out: Growth percentage"}, "[20]": {"system": "EKVX", "assay": "NCI-60 screening, one-dose (10 µM) and five-dose, SRB", "assay_type": "cell-based, human", "details": "Homo sapiens, 10 μM, Non-Small-Cell Lung Cancer, read-out: Growth percentage"}, "[21]": {"system": "A549/ATCC", "assay": "NCI-60 screening, one-dose (10 µM) and five-dose, SRB", "assay_type": "cell-based, human", "details": "Homo sapiens, 10 μM, Non-Small-Cell Lung Cancer, read-out: Growth percentage"}, "[22]": {"system": "CCRF-CEM", "assay": "NCI-60 screening, one-dose (10 µM) and five-dose, SRB", "assay_type": "cell-based, human", "details": "Homo sapiens, 10 μM, Leukemia, read-out: Growth percentage"}, "[23]": {"system": "RXF 393", "assay": "NCI-60 screening, one-dose (10 µM) and five-dose, SRB", "assay_type": "cell-based", "details": "Homo sapiens; 10 μM; RXF 393, Renal Cancer; read-out: Growth percentage"}, "[24]": {"system": "SF-539", "assay": "NCI-60 screening, one-dose (10 µM) and five-dose, SRB", "assay_type": "cell-based, human", "details": "Homo sapiens, SF-539, 10 μM; SF-539, CNS Cancer; read-out: Growth percentage"}, "[25]": {"system": "SK-OV-3", "assay": "NCI-60 screening, one-dose (10 µM) and five-dose, SRB", "assay_type": "cell-based, human", "details": "Homo sapiens; 10 μM; SK-OV-3, Ovarian Cancer; read-out: Growth percentage"}, "[26]": {"system": "SK-MEL-2", "assay": "NCI-60 screening, one-dose (10 µM) and five-dose, SRB", "assay_type": "cell-based, human", "details": "Homo sapiens; 10 μM; SK-MEL-2, Melanoma; read-out: Growth percentage"}, "[27]": {"system": "ACHN", "assay": "NCI-60 screening, one-dose (10 µM) and five-dose, SRB", "assay_type": "cell-based, human", "details": "Homo sapiens, 10 μM, Renal Cancer, read-out: Growth percentage"}, "[28]": {"system": "U251", "assay": "NCI-60 screening, one-dose (10 µM) and five-dose, SRB", "assay_type": "cell-based, human", "details": "Homo sapiens, U-251; 10 μM; U251, CNS Cancer; read-out: Growth percentage"}}}
{"smiles": "CC(=O)c1sc(SCC(=O)N2CCN(c3cc4c(cc3F)c(=O)c(C(=O)O)cn4C3CC3)CC2)nc1C", "note": "[Compound 4a, 7-(4-(2-((5-Acetyl-4-methylthiazol-2-yl)thio)acetyl)piperazin-1-yl)-1-cyclopropyl-6-fluoro-4-oxo-1,4-dihydroquinoline-3-carboxylic Acid]", "values": [{"measurement": "activity at 10 µM", "setting": "[1]", "result": 99.4, "unit": "%"}, {"measurement": "activity at 10 µM", "setting": "[2]", "result": 118, "unit": "%"}, {"measurement": "activity at 10 µM", "setting": "[3]", "result": 102, "unit": "%"}, {"measurement": "activity at 10 µM", "setting": "[4]", "result": 102, "unit": "%"}, {"measurement": "activity at 10 µM", "setting": "[5]", "result": 98.3, "unit": "%"}, {"measurement": "activity at 10 µM", "setting": "[6]", "result": 106, "unit": "%"}, {"measurement": "activity at 10 µM", "setting": "[7]", "result": 96.7, "unit": "%"}, {"measurement": "activity at 10 µM", "setting": "[8]", "result": 111, "unit": "%"}, {"measurement": "activity at 10 µM", "setting": "[9]", "result": 98.9, "unit": "%"}, {"measurement": "activity at 10 µM", "setting": "[10]", "result": 117, "unit": "%"}, {"measurement": "activity at 10 µM", "setting": "[11]", "result": 105, "unit": "%"}, {"measurement": "activity at 10 µM", "setting": "[12]", "result": 99.2, "unit": "%"}, {"measurement": "activity at 10 µM", "setting": "[13]", "result": 104, "unit": "%"}, {"measurement": "activity at 10 µM", "setting": "[14]", "result": 97.9, "unit": "%"}, {"measurement": "activity at 10 µM", "setting": "[15]", "result": 98.8, "unit": "%"}, {"measurement": "activity at 10 µM", "setting": "[16]", "result": 95.1, "unit": "%"}, {"measurement": "activity at 10 µM", "setting": "[17]", "result": 105, "unit": "%"}, {"measurement": "activity at 10 µM", "setting": "[18]", "result": 104, "unit": "%"}, {"measurement": "activity at 10 µM", "setting": "[19]", "result": 103, "unit": "%"}, {"measurement": "activity at 10 µM", "setting": "[20]", "result": 104, "unit": "%"}, {"measurement": "activity at 10 µM", "setting": "[21]", "result": 104, "unit": "%"}, {"measurement": "activity at 10 µM", "setting": "[22]", "result": 96.2, "unit": "%"}, {"measurement": "activity at 10 µM", "setting": "[23]", "result": 91.7, "unit": "%"}, {"measurement": "activity at 10 µM", "setting": "[24]", "result": 86.4, "unit": "%"}, {"measurement": "activity at 10 µM", "setting": "[25]", "result": 101, "unit": "%"}, {"measurement": "activity at 10 µM", "setting": "[26]", "result": 97.4, "unit": "%"}, {"measurement": "activity at 10 µM", "setting": "[27]", "result": 98.3, "unit": "%"}, {"measurement": "activity at 10 µM", "setting": "[28]", "result": 114, "unit": "%"}]}
{"smiles": "COc1cccc(/C=C/C(=O)c2sc(SCC(=O)N3CCN(c4cc5c(cc4F)c(=O)c(C(=O)O)cn5C4CC4)CC3)nc2C)c1OC", "note": "[Compound 4k, (E)-1-Cyclopropyl-7-(4-(2-((5-(3-(2,3-dimethoxyphenyl)acryloyl)-4-methylthiazol-2-yl)thio)acetyl)piperazin-1-yl)-6-fluoro-4-oxo-1,4-dihydroquinoline-3-carboxylic Acid]", "values": [{"measurement": "activity at 10 µM", "setting": "[1]", "result": 53.2, "unit": "%"}, {"measurement": "activity at 10 µM", "setting": "[2]", "result": 126, "unit": "%"}, {"measurement": "activity at 10 µM", "setting": "[3]", "result": 77.9, "unit": "%"}, {"measurement": "activity at 10 µM", "setting": "[4]", "result": 80.4, "unit": "%"}, {"measurement": "activity at 10 µM", "setting": "[5]", "result": 63.3, "unit": "%"}, {"measurement": "activity at 10 µM", "setting": "[6]", "result": 87.9, "unit": "%"}, {"measurement": "activity at 10 µM", "setting": "[7]", "result": 100, "unit": "%"}, {"measurement": "activity at 10 µM", "setting": "[8]", "result": 48.5, "unit": "%"}, {"measurement": "activity at 10 µM", "setting": "[9]", "result": 104, "unit": "%"}, {"measurement": "activity at 10 µM", "setting": "[10]", "result": 102, "unit": "%"}, {"measurement": "activity at 10 µM", "setting": "[11]", "result": 122, "unit": "%"}, {"measurement": "activity at 10 µM", "setting": "[12]", "result": 107, "unit": "%"}, {"measurement": "activity at 10 µM", "setting": "[13]", "result": 102, "unit": "%"}, {"measurement": "activity at 10 µM", "setting": "[14]", "result": 105, "unit": "%"}, {"measurement": "activity at 10 µM", "setting": "[15]", "result": 84.5, "unit": "%"}, {"measurement": "activity at 10 µM", "setting": "[16]", "result": 118, "unit": "%"}, {"measurement": "activity at 10 µM", "setting": "[17]", "result": 87.6, "unit": "%"}, {"measurement": "activity at 10 µM", "setting": "[18]", "result": 73.1, "unit": "%"}, {"measurement": "activity at 10 µM", "setting": "[19]", "result": 109, "unit": "%"}, {"measurement": "activity at 10 µM", "setting": "[20]", "result": 96.9, "unit": "%"}, {"measurement": "activity at 10 µM", "setting": "[21]", "result": 106, "unit": "%"}, {"measurement": "activity at 10 µM", "setting": "[22]", "result": 72, "unit": "%"}, {"measurement": "activity at 10 µM", "setting": "[23]", "result": 86.3, "unit": "%"}, {"measurement": "activity at 10 µM", "setting": "[25]", "result": 76.7, "unit": "%"}, {"measurement": "activity at 10 µM", "setting": "[26]", "result": 93.4, "unit": "%"}, {"measurement": "activity at 10 µM", "setting": "[27]", "result": 105, "unit": "%"}, {"measurement": "activity at 10 µM", "setting": "[28]", "result": 103, "unit": "%"}]}
